Test results reported in ChEMBL document CHEMBL3351302, “Design, synthesis and biological evaluation of 4-anilinothieno[2,3-d]pyrimidine-based hydroxamic acid derivatives as novel histone deacetylase inhibitors” (Bioorg Med Chem, 2014).

Columns and labels:
[1] = target: Histone deacetylase 3 (Homo sapiens, UniProt O15379); experiment: Inhibition of human recombinant full length HDAC3 using (Ac)-Lys-Tyr-Lys(-acetyl)-AMC substrate after 30 mins
[2] = target: Histone deacetylase 1 (Homo sapiens, UniProt Q13547); experiment: Inhibition of human recombinant full length HDAC1 using (Ac)-Lys-Tyr-Lys(-acetyl)-AMC substrate after 30 mins
Chain of Histone deacetylase 1 (Q13547 whole entry): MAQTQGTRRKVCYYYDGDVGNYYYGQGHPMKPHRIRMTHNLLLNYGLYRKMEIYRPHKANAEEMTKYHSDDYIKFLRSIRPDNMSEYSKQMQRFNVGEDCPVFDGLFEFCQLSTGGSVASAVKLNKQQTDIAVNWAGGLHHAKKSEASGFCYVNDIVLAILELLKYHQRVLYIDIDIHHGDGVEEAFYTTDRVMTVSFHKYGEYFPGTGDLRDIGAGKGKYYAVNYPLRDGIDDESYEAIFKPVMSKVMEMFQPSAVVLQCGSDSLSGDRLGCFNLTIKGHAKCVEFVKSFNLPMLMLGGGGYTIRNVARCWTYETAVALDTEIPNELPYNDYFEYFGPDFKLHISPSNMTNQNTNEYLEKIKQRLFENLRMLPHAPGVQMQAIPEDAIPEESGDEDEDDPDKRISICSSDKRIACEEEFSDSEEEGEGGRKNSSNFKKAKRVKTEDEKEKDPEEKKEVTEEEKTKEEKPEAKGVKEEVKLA

[3] = target: T1, Protein deacetylase HDAC6 (Homo sapiens, UniProt Q9UBN7); experiment: Inhibition of human recombinant full length HDAC6 using (Boc-Lys (-acetyl)-AMC substrate after 30 mins
T1 sequence (Q9UBN7 whole entry): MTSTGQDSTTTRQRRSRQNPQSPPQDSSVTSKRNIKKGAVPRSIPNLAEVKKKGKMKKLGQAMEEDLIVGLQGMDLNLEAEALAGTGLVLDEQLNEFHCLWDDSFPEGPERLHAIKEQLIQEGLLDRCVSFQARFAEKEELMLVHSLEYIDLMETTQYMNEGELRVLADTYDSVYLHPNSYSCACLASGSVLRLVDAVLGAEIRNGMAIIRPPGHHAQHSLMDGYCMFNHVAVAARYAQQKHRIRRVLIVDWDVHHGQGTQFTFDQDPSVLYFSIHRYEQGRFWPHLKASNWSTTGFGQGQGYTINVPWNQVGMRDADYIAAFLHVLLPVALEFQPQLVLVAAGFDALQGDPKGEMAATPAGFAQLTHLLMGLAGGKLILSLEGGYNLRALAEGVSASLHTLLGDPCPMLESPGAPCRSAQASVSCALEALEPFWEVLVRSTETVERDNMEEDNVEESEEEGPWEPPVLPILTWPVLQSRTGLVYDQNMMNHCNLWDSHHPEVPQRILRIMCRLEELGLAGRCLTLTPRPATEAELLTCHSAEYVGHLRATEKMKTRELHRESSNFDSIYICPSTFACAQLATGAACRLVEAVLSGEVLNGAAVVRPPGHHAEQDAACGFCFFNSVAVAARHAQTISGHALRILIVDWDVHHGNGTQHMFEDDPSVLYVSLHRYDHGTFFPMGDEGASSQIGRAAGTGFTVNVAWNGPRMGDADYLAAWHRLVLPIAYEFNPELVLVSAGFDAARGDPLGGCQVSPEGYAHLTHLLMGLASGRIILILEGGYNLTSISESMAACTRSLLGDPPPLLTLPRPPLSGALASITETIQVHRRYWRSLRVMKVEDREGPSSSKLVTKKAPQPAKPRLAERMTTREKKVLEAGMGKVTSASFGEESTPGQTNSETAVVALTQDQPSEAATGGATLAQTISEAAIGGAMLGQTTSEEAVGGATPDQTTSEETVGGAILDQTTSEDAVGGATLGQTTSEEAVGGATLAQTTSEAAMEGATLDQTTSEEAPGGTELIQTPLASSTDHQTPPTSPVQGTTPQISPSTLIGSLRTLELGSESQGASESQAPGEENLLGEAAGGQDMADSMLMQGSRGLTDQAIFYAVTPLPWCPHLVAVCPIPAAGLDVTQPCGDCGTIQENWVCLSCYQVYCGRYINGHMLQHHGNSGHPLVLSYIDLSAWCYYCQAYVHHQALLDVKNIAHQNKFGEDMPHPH

[4] = Antiproliferative activity against human RPMI8226 cells after 72 hrs by WST8 assay; type: functional, cell-based; conditions: RPMI-8226, 72 h
[5] = Antiproliferative activity against human HCT116 cells after 72 hrs by WST8 assay; type: functional, cell-based; conditions: HCT-116, 72 h
[6] = target: T2, Histone deacetylase (Homo sapiens) (UniProt Q13547+O15379+Q9UBN7+Q92769+Q9UQL6+Q8WUI4+Q9BY41+Q96DB2+P56524+Q9UKV0+Q969S8); experiment: Inhibition of HDAC in human RPMI8226 cells assessed as increase in alpha-tubulin acetylation after 24 hrs by Western blot analysis; type: cell-based; conditions: RPMI-8226
[7] = target: T2, Histone deacetylase (Homo sapiens); experiment: Inhibition of HDAC in human RPMI8226 cells assessed as increase in histone H3 acetylation after 24 hrs by Western blot analysis; type: cell-based; conditions: RPMI-8226

Chain of Histone deacetylase 3 (O15379 whole entry): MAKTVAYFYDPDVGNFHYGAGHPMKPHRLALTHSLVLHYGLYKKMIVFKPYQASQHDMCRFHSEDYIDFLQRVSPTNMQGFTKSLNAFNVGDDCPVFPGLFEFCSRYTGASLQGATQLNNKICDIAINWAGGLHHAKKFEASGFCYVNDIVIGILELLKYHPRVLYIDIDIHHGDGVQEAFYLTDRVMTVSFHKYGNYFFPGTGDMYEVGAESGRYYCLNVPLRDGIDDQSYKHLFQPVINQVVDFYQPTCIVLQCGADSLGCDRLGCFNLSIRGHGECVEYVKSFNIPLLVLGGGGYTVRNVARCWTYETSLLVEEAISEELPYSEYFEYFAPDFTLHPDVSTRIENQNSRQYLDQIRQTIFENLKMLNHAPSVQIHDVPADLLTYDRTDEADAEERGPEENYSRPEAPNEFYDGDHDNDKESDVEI

SMILES	IC50 [1] [nM]	IC50 [2] [nM]	IC50 [3] [nM]	inhibition [6]	inhibition [7]	IC50 [4] [nM]	IC50 [5] [nM]
Cc1ccc(Nc2ncnc3sc(NC(=O)CCCCCCC(=O)NO)cc23)cc1	2.92	2.01	5.37	Dose-dependent effect	Dose-dependent effect	3840	2340
O=C(CCCCCCC(=O)Nc1cc2c(Nc3cccc(Cl)c3)ncnc2s1)NO	6.46	3.24	8.58			4490	
CCN(CC)c1ccc(Nc2ncnc3sc(NC(=O)CCCCCCC(=O)NO)cc23)cc1F	3.52	4.57	3.44	Dose-dependent effect	Dose-dependent effect	1410	2550
O=C(CCCCCCC(=O)Nc1cc2c(Nc3ccc(Br)cc3F)ncnc2s1)NO	11.9	13.5	8.87			8120	
O=C(CCCCCC(=O)Nc1cc2c(Nc3ccccc3)ncnc2s1)NO	20.8	11.8	27				
CCN(CC)c1ccc(Nc2ncnc3sc(NC(=O)CCCCCCC(=O)NO)cc23)cc1	39.7	32.9	43.2			5950	4440
O=C(CCCCCC(=O)Nc1cc2c(Nc3ccc(F)c(Cl)c3)ncnc2s1)NO	37.7	35.9	24				
Cc1ccc(Nc2ncnc3sc(NC(=O)CCCCCCC(=O)NO)cc23)cc1C	3.56	1.14	11.4	Dose-dependent effect	Dose-dependent effect	2390	1610
CN(C)c1ccc(Nc2ncnc3sc(NC(=O)CCCCCCC(=O)NO)cc23)cc1F	3.22	4.51	2.69	Dose-dependent effect	Dose-dependent effect	3490	4030
O=C(CCCCCCC(=O)Nc1cc2c(Cl)ncnc2s1)NO	26.5	25.5	15.1	Dose-dependent effect	Dose-dependent effect	2180	2920
O=C(CCCCCCC(=O)Nc1cc2c(Nc3ccccc3)ncnc2s1)NO	3.47	1.9	12	Dose-dependent effect	Dose-dependent effect	3790	1820
O=C(CCCCCC(=O)Nc1cc2c(Nc3ccc(Cl)c(C(F)(F)F)c3)ncnc2s1)NO	48.3	40.8	30				
O=C(CCCCC(=O)Nc1cc2c(Nc3ccc(F)c(Cl)c3)ncnc2s1)NO	127	131	569				
O=C(CCCCCCC(=O)Nc1cc2c(Nc3ccc(O[C@H]4CCOC4)c(Cl)c3)ncnc2s1)NO	3.58	2.97	1.9			4200	2240
O=C(CCCCCCC(=O)Nc1cc2c(Nc3ccc(Cl)cc3F)ncnc2s1)NO	14.5	12.5	5.58			3500	1700

The remaining compounds from weak to strong by IC50 [1], led by results:

IC50 [1] [nM]	IC50 [2] [nM]	IC50 [3] [nM]	inhibition [6]	inhibition [7]	SMILES	IC50 [4] [nM]	IC50 [5] [nM]
607	218				O=C(CCCCC(=O)Nc1cc2c(Nc3ccc(Cl)c(C(F)(F)F)c3)ncnc2s1)NO		
23.5	21.7	11.5			O=C(CCCCCCC(=O)Nc1cc2c(Nc3ccc(Cl)c(C(F)(F)F)c3)ncnc2s1)NO		
17.9	13.4	22			O=C(CCCCCCC(=O)Nc1cc2c(Nc3ccc(F)c(Cl)c3)ncnc2s1)NO		
16.9	10.1	7.88			O=C(CCCCCCC(=O)Nc1cc2c(Nc3ccc(F)cc3F)ncnc2s1)NO	7490	
14.7	29.8	16.9			Cc1ccc(Nc2ncnc3sc(NC(=O)CCCCCC(=O)NO)cc23)cc1C		
14.6	7.78	8.46			O=C(CCCCCCC(=O)Nc1cc2c(Nc3cccc(Cl)c3F)ncnc2s1)NO	8170	
14.1	13.9	7.19			O=C(CCCCCCC(=O)Nc1cc2c(Nc3ccc(N4CCCC4)cc3)ncnc2s1)NO	5420	3740
14.1	14.5	9.28			O=C(CCCCCCC(=O)Nc1cc2c(Nc3ccc(N4CCCC4)c(F)c3)ncnc2s1)NO	4630	4090
13.5	6.24	6.55			O=C(CCCCCCC(=O)Nc1cc2c(Nc3ccc(I)cc3F)ncnc2s1)NO		
9.33	14	19.7			Cc1ccc(Nc2ncnc3sc(NC(=O)CCCCCC(=O)NO)cc23)cc1		
8.19	5.39	3.42			O=C(CCCCCCC(=O)Nc1cc2c(Nc3ccc(N4CCCCC4)c(F)c3)ncnc2s1)NO	3280	1440
